The text below walks through data of the supplement of paper PMC10307832.

What all share (assay): relative viability (nuclei count vs DMSO), 5 days (fraction); higher = more cells survive
Compound in the experiment “XMD13-2 + Alpelisib”: C1CC1C(=O)NC2=NNC3=C2C=CC(=C3)C4=CC(=CC=C4)C(=O)NC5CC5 [XMD13-2] + Cc1nc(NC(=O)N2CCC[C@H]2C(N)=O)sc1-c1ccnc(C(C)(C)C(F)(F)F)c1 [Alpelisib] (partner 2 µM)
The method, boiled down:
(§1)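 Five library-drug doses in √10 steps were combined with a fixed anchor-drug dose, or a single drug was given alone, by pin tool to lung cancer cell lines in 1536-well plates the day after seeding. Nuclei were stained and counted after 5 days. Relative viability is the nuclei count in treated wells over that in vehicle wells, taken as the median of duplicate plates.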

Compound in the experiment “XMD13-2 + Olaparib”: C1CC1C(=O)NC2=NNC3=C2C=CC(=C3)C4=CC(=CC=C4)C(=O)NC5CC5 [XMD13-2] + O=C(c1cc(Cc2n[nH]c(=O)c3ccccc23)ccc1F)N1CCN(C(=O)C2CC2)CC1 [Olaparib] (partner 8 µM)
Put shortly:
as §1

Compound in the experiment “ALW-II-49-7 + Bortezomib”: Cc1ccc(C(=O)Nc2cccc(C(F)(F)F)c2)cc1Nc1cncc(C(N)=O)c1 [ALW-II-49-7] + CC(C)C[C@H](NC(=O)[C@H](Cc1ccccc1)NC(=O)c1cnccn1)B(O)O [Bortezomib] (partner 0.002 µM)
The method, boiled down: as §1

Compound in the experiment “Dasatinib + Pemetrexed”: Cc1nc(Nc2ncc(C(=O)Nc3c(C)cccc3Cl)s2)cc(N2CCN(CCO)CC2)n1 [Dasatinib] + Nc1nc2[nH]cc(CCc3ccc(C(=O)N[C@@H](CCC(=O)O)C(=O)O)cc3)c2c(=O)[nH]1 [Pemetrexed] (partner 0.2 µM)
The method, boiled down: as §1

As to NCI-H2347, the relative viability with XMD13-2 + Alpelisib (first compound 0.05 µM) was found to be 1.04; with XMD13-2 + Alpelisib (first compound 0.1581 µM), 1.07; with XMD13-2 + Alpelisib (first compound 0.5 µM), 1.08; with XMD13-2 + Alpelisib (first compound 1.581 µM), 0.92; with XMD13-2 + Alpelisib (first compound 5 µM) it was 1.05; in the experiment with XMD13-2 + Olaparib (first compound 0.05 µM), 0.608. For the same cell line, the relative viability with XMD13-2 + Olaparib (first compound 0.1581 µM) amounted to 0.538; with XMD13-2 + Olaparib (first compound 0.5 µM), 0.598; with XMD13-2 + Olaparib (first compound 1.581 µM), 0.532; with XMD13-2 + Olaparib (first compound 5 µM) it was 0.601; with ALW-II-49-7 + Bortezomib (first compound 0.08 µM), 0.539; with ALW-II-49-7 + Bortezomib (first compound 0.253 µM), 1.28. Also, the relative viability was determined as 1.08 with ALW-II-49-7 + Bortezomib (first compound 0.8 µM); 0.23 in the experiment with ALW-II-49-7 + Bortezomib (first compound 2.53 µM); 0.566 with ALW-II-49-7 + Bortezomib (first compound 8 µM); 0.375 with Dasatinib + Pemetrexed (first compound 0.005 µM); 0.38 with Dasatinib + Pemetrexed (first compound 0.01581 µM); 0.342 with Dasatinib + Pemetrexed (first compound 0.05 µM). For the same cell line, the relative viability came to 0.253 with Dasatinib + Pemetrexed (first compound 0.1581 µM) and 0.259 in the experiment with Dasatinib + Pemetrexed (first compound 0.5 µM).

On to NCI-H2405, for which the relative viability with XMD13-2 + Alpelisib (first compound 0.05 µM) was 0.935; with XMD13-2 + Alpelisib (first compound 0.1581 µM) it was 0.875; in the experiment with XMD13-2 + Alpelisib (first compound 0.5 µM), 0.807; with XMD13-2 + Alpelisib (first compound 1.581 µM), 0.81; in the experiment with XMD13-2 + Alpelisib (first compound 5 µM), 0.863; in the experiment with XMD13-2 + Olaparib (first compound 0.05 µM), 0.931. Moreover, the relative viability with XMD13-2 + Olaparib (first compound 0.1581 µM) worked out at 0.874; with XMD13-2 + Olaparib (first compound 0.5 µM), 0.931; in the experiment with XMD13-2 + Olaparib (first compound 5 µM), 0.843; with ALW-II-49-7 + Bortezomib (first compound 0.08 µM) it was 1.05; in the experiment with ALW-II-49-7 + Bortezomib (first compound 0.253 µM), 0.886; with ALW-II-49-7 + Bortezomib (first compound 0.8 µM), 1.09. For the same cell line, the relative viability with ALW-II-49-7 + Bortezomib (first compound 2.53 µM) is 0.954; in the experiment with ALW-II-49-7 + Bortezomib (first compound 8 µM) it was 0.89; in the experiment with Dasatinib + Pemetrexed (first compound 0.005 µM), 0.852; with Dasatinib + Pemetrexed (first compound 0.01581 µM) it was 0.65; in the experiment with Dasatinib + Pemetrexed (first compound 0.05 µM), 0.422; with Dasatinib + Pemetrexed (first compound 0.1581 µM) it was 0.229. Moreover, in the experiment with Dasatinib + Pemetrexed (first compound 0.5 µM), the relative viability was determined as 0.22.

For NCI-H3122, the relative viability with XMD13-2 + Alpelisib (first compound 0.05 µM) is 0.784; in the experiment with XMD13-2 + Alpelisib (first compound 0.1581 µM) it was 0.678; with XMD13-2 + Alpelisib (first compound 0.5 µM), 0.782; with XMD13-2 + Alpelisib (first compound 1.581 µM), 0.945; in the experiment with XMD13-2 + Alpelisib (first compound 5 µM) it was 0.819; with XMD13-2 + Olaparib (first compound 0.05 µM) it was 0.726. Further, the relative viability with XMD13-2 + Olaparib (first compound 0.1581 µM) was 0.649; in the experiment with XMD13-2 + Olaparib (first compound 0.5 µM), 0.697; with XMD13-2 + Olaparib (first compound 1.581 µM) it was 0.702; with XMD13-2 + Olaparib (first compound 5 µM), 0.629; with ALW-II-49-7 + Bortezomib (first compound 0.08 µM), 1.09; with ALW-II-49-7 + Bortezomib (first compound 0.253 µM), 1.06. Besides, the relative viability in the experiment with ALW-II-49-7 + Bortezomib (first compound 0.8 µM) worked out at 1.11; with ALW-II-49-7 + Bortezomib (first compound 2.53 µM), 1.08; in the experiment with ALW-II-49-7 + Bortezomib (first compound 8 µM), 1.11; with Dasatinib + Pemetrexed (first compound 0.005 µM), 0.208; with Dasatinib + Pemetrexed (first compound 0.01581 µM), 0.205; in the experiment with Dasatinib + Pemetrexed (first compound 0.05 µM) it was 0.194. Moreover, the relative viability came out at 0.198 with Dasatinib + Pemetrexed (first compound 0.1581 µM) and 0.186 with Dasatinib + Pemetrexed (first compound 0.5 µM).

For the cell line PC-3 [JPC-3], the relative viability in the experiment with XMD13-2 + Alpelisib (first compound 0.05 µM) is 1.05; with XMD13-2 + Alpelisib (first compound 0.1581 µM) it was 0.983; with XMD13-2 + Alpelisib (first compound 0.5 µM), 1.06; with XMD13-2 + Alpelisib (first compound 1.581 µM), 1.02; with XMD13-2 + Alpelisib (first compound 5 µM), 0.936; with XMD13-2 + Olaparib (first compound 0.05 µM), 1.16. The relative viability in the experiment with XMD13-2 + Olaparib (first compound 0.1581 µM) is 1.12; in the experiment with XMD13-2 + Olaparib (first compound 0.5 µM) it was 1.12; in the experiment with XMD13-2 + Olaparib (first compound 5 µM) it was 1.05; in the experiment with ALW-II-49-7 + Bortezomib (first compound 0.08 µM), 0.746; with ALW-II-49-7 + Bortezomib (first compound 0.253 µM) it was 0.777; in the experiment with ALW-II-49-7 + Bortezomib (first compound 0.8 µM) it was 0.758. The relative viability with ALW-II-49-7 + Bortezomib (first compound 2.53 µM) was found to be 0.862; with ALW-II-49-7 + Bortezomib (first compound 8 µM), 0.825; in the experiment with Dasatinib + Pemetrexed (first compound 0.005 µM), 1.22; in the experiment with Dasatinib + Pemetrexed (first compound 0.01581 µM), 1.1; with Dasatinib + Pemetrexed (first compound 0.05 µM) it was 1.08; with Dasatinib + Pemetrexed (first compound 0.1581 µM), 0.717. The relative viability with Dasatinib + Pemetrexed (first compound 0.5 µM) amounted to 0.474.
